# Columns and labels:
# Format in all cases: in vivo
# [1] = tested on: crabgrass, large (large crabgrass, Digitaria sanguinalis); assay: Test A postemergence, crabgrass, large; settings: 0 to 100 scale, 0 no effect, 100 complete control
# Excerpt: (§1) Seeds of plant species selected from barnyardgrass (Echinochloa crus-galli), crabgrass, large (large crabgrass, Digitaria sanguinalis), kochia (Kochia scoparia), ragweed (common ragweed, Ambrosia elatior), morningglory (Ipomoea spp.), velvetleaf (Abutilon theophrasti), ryegrass, Italian (Italian ryegrass, Lolium multiflorum), foxtail, giant (giant foxtail, Setaria faberii), wheat (Triticum aestivum), corn (Zea mays), and pigweed (Amaranthus retroflexus), were planted into a blend of loam soil and sand and treated preemergence with a directed soil spray using test chemicals formulated in a non-phytotoxic solvent mixture which included a surfactant. At the same time, plants selected from these crop and weed species and also blackgrass (Alopecurus myosuroides), and galium (catchweed bedstraw, Galium aparine), were planted in pots containing the same blend of loam soil and sand and treated with postemergence applications of test chemicals formulated in the same manner. Plants ranged in height from 2 to 10 cm and were in the one- to two-leaf stage for the postemergence treatment. Treated plants and untreated controls were maintained in a greenhouse for approximately 10 d, after which time all treated plants were compared to untreated controls and visually evaluated for injury. Plant response ratings, summarized in Table A, are based on a 0 to 100 scale where 0 is no effect and 100 is complete control. A dash (-) response means no test result.
# [2] = tested on: velvetleaf (Abutilon theophrasti); assay: Test A preemergence, velvetleaf; settings: 0 to 100 scale, 0 no effect, 100 complete control
# Excerpt: as §1
# [3] = tested on: foxtail, giant (giant foxtail, Setaria faberii); assay: Test A preemergence, foxtail, giant; settings: 0 to 100 scale, 0 no effect, 100 complete control
# Outline: (§2)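 Seeds sown in loam soil–sand blend received a directed preemergence soil spray of test chemical in non-phytotoxic solvent with surfactant; postemergence sprays went onto plants 2 to 10 cm tall at one- to two-leaf stage. After about 10 d in greenhouse, injury was rated visually against untreated controls, 0 (no effect) to 100 (complete control).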
# rice (Oryza sativa) = assay: Test B flooded paddy test, rice; settings: Flood, 250 g ai/ha; scale 0 to 100 (0 no effect, 100 complete control); 13 to 15 d
# Outline: (§3)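 Ratings use a 0-100 visual scale, where 100 is complete control, and compare treated plants with controls after 13 to 15 d of greenhouse growth. Compound went straight into paddy water kept 3 cm over the soil surface, applied to seedlings at the 2-leaf stage.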
# corn (Zea mays) [4] = assay: Test A postemergence, corn; settings: 0 to 100 scale, 0 no effect, 100 complete control
# Outline: as §2
# [5] = tested on: velvetleaf (Abutilon theophrasti); assay: Test A postemergence, velvetleaf; settings: 0 to 100 scale, 0 no effect, 100 complete control
# Excerpt: as §1
# [6] = tested on: crabgrass, large (large crabgrass, Digitaria sanguinalis); assay: Test A preemergence, crabgrass, large; settings: 0 to 100 scale, 0 no effect, 100 complete control
# Excerpt: as §1
# [7] = tested on: wheat (Triticum aestivum); assay: Test A preemergence, wheat; settings: 0 to 100 scale, 0 no effect, 100 complete control
# Excerpt: as §1
# [8] = tested on: sedge, umbrella (small-flower umbrella sedge, Cyperus difformis); assay: Test B flooded paddy test, sedge, umbrella; settings: Flood, 250 g ai/ha; scale 0 to 100 (0 no effect, 100 complete control); 13 to 15 d
# Outline: as §3
# [9] = tested on: barnyardgrass (Echinochloa crus-galli); assay: Test A postemergence, barnyardgrass; settings: 0 to 100 scale, 0 no effect, 100 complete control
# Outline: as §2
# [10] = tested on: pigweed (Amaranthus retroflexus); assay: Test A preemergence, pigweed; settings: 0 to 100 scale, 0 no effect, 100 complete control
# Outline: as §2
# [11] = tested on: pigweed (Amaranthus retroflexus); assay: Test A postemergence, pigweed; settings: 0 to 100 scale, 0 no effect, 100 complete control
# Outline: as §2
# [12] = tested on: wheat (Triticum aestivum); assay: Test A postemergence, wheat; settings: 0 to 100 scale, 0 no effect, 100 complete control
# Outline: as §2
# [13] = tested on: barnyardgrass (Echinochloa crus-galli); assay: Test B flooded paddy test, barnyardgrass; settings: Flood, 250 g ai/ha; scale 0 to 100 (0 no effect, 100 complete control); 13 to 15 d
# Outline: as §3
# [14] = tested on: morningglory (Ipomoea spp.); assay: Test A postemergence, morningglory; settings: 0 to 100 scale, 0 no effect, 100 complete control
# Excerpt: as §1
# [15] = tested on: morningglory (Ipomoea spp.); assay: Test A preemergence, morningglory; settings: 0 to 100 scale, 0 no effect, 100 complete control
# Excerpt: as §1
# corn (Zea mays) [16] = assay: Test A preemergence, corn; settings: 0 to 100 scale, 0 no effect, 100 complete control
# Excerpt: as §1
# [17] = tested on: barnyardgrass (Echinochloa crus-galli); assay: Test A preemergence, barnyardgrass; settings: 0 to 100 scale, 0 no effect, 100 complete control
# Outline: as §2
# [18] = tested on: foxtail, giant (giant foxtail, Setaria faberii); assay: Test A postemergence, foxtail, giant; settings: 0 to 100 scale, 0 no effect, 100 complete control
# Outline: as §2
# [19] = tested on: ducksalad (Heteranthera limosa); assay: Test B flooded paddy test, ducksalad; settings: Flood, 250 g ai/ha; scale 0 to 100 (0 no effect, 100 complete control); 13 to 15 d
# Outline: as §3
structure (smiles),measurement,setting,value
O=C(Nc1ccccc1C(F)(F)F)N1C(=O)OCC1c1ccc(F)c(F)c1 (stereo not drawn) [Compound 1],"Plant response rating, Crabgrass, Large",[1]; 125 g ai/ha,0
same,"Plant response rating, Crabgrass, Large",[1]; 500 g ai/ha,20
same,"Plant response rating, Velvetleaf",[2]; 125 g ai/ha,0
same,"Plant response rating, Velvetleaf",[2]; 500 g ai/ha,0
same,"Plant response rating, Foxtail, Giant",[3]; 125 g ai/ha,0
same,"Plant response rating, Foxtail, Giant",[3]; 500 g ai/ha,0
same,"Plant response rating, Rice",rice (Oryza sativa),0
same,"Plant response rating, Corn",corn (Zea mays) [4]; 125 g ai/ha,0
same,"Plant response rating, Corn",corn (Zea mays) [4]; 500 g ai/ha,0
same,"Plant response rating, Velvetleaf",[5]; 125 g ai/ha,0
same,"Plant response rating, Velvetleaf",[5]; 500 g ai/ha,0
same,"Plant response rating, Crabgrass, Large",[6]; 125 g ai/ha,30
same,"Plant response rating, Crabgrass, Large",[6]; 500 g ai/ha,70
same,"Plant response rating, Wheat",[7]; 125 g ai/ha,0
same,"Plant response rating, Wheat",[7]; 500 g ai/ha,0
same,"Plant response rating, Sedge, Umbrella",[8],0
same,"Plant response rating, Barnyardgrass",[9]; 125 g ai/ha,0
same,"Plant response rating, Barnyardgrass",[9]; 500 g ai/ha,0
same,"Plant response rating, Pigweed",[10]; 125 g ai/ha,0
same,"Plant response rating, Pigweed",[10]; 500 g ai/ha,0
same,"Plant response rating, Pigweed",[11]; 125 g ai/ha,0
same,"Plant response rating, Pigweed",[11]; 500 g ai/ha,0
same,"Plant response rating, Wheat",[12]; 125 g ai/ha,0
same,"Plant response rating, Wheat",[12]; 500 g ai/ha,0
same,"Plant response rating, Barnyardgrass",[13],0
same,"Plant response rating, Morningglory",[14]; 125 g ai/ha,0
same,"Plant response rating, Morningglory",[14]; 500 g ai/ha,0
same,"Plant response rating, Morningglory",[15]; 125 g ai/ha,0
same,"Plant response rating, Morningglory",[15]; 500 g ai/ha,0
same,"Plant response rating, Corn",corn (Zea mays) [16]; 125 g ai/ha,0
same,"Plant response rating, Corn",corn (Zea mays) [16]; 500 g ai/ha,0
same,"Plant response rating, Barnyardgrass",[17]; 125 g ai/ha,0
same,"Plant response rating, Barnyardgrass",[17]; 500 g ai/ha,0
same,"Plant response rating, Foxtail, Giant",[18]; 125 g ai/ha,0
same,"Plant response rating, Foxtail, Giant",[18]; 500 g ai/ha,0
same,"Plant response rating, Ducksalad",[19],0
"O=C(Nc1ccccc1F)N1C(=O)OCC1c1ccc(F)c(F)c1 (stereo not drawn) [Compound 3, 4-(3,4-difluorophenyl)-N-(2-fluorophenyl)-2-oxo-3-oxazolidinecarboxamide]","Plant response rating, Crabgrass, Large",[1]; 1000 g ai/ha,80
same,"Plant response rating, Velvetleaf",[2]; 1000 g ai/ha,0
same,"Plant response rating, Foxtail, Giant",[3]; 1000 g ai/ha,50
same,"Plant response rating, Corn",corn (Zea mays) [4]; 1000 g ai/ha,0
same,"Plant response rating, Velvetleaf",[5]; 1000 g ai/ha,0
same,"Plant response rating, Crabgrass, Large",[6]; 1000 g ai/ha,90
same,"Plant response rating, Wheat",[7]; 1000 g ai/ha,0
same,"Plant response rating, Barnyardgrass",[9]; 1000 g ai/ha,20
same,"Plant response rating, Pigweed",[10]; 1000 g ai/ha,0
same,"Plant response rating, Pigweed",[11]; 1000 g ai/ha,0
same,"Plant response rating, Wheat",[12]; 1000 g ai/ha,0
same,"Plant response rating, Morningglory",[15]; 1000 g ai/ha,0
same,"Plant response rating, Corn",corn (Zea mays) [16]; 1000 g ai/ha,0
same,"Plant response rating, Barnyardgrass",[17]; 1000 g ai/ha,0
same,"Plant response rating, Foxtail, Giant",[18]; 1000 g ai/ha,40
